{"source": "patent US8933011B2", "about": "“Treatment of preterm labor with toll-like receptor 9 antagonists” (The Provost, Fellows and Scholars of the College of the …, priority 2008, dated 2015)", "molecular_target": "T1, Toll-like Receptor 9 (Homo sapiens, UniProt Q9NR96)", "T1 construct": "endogenous in cells; host or cells: Namalwa cells", "T1 sequence (Q9NR96 26-1032)": "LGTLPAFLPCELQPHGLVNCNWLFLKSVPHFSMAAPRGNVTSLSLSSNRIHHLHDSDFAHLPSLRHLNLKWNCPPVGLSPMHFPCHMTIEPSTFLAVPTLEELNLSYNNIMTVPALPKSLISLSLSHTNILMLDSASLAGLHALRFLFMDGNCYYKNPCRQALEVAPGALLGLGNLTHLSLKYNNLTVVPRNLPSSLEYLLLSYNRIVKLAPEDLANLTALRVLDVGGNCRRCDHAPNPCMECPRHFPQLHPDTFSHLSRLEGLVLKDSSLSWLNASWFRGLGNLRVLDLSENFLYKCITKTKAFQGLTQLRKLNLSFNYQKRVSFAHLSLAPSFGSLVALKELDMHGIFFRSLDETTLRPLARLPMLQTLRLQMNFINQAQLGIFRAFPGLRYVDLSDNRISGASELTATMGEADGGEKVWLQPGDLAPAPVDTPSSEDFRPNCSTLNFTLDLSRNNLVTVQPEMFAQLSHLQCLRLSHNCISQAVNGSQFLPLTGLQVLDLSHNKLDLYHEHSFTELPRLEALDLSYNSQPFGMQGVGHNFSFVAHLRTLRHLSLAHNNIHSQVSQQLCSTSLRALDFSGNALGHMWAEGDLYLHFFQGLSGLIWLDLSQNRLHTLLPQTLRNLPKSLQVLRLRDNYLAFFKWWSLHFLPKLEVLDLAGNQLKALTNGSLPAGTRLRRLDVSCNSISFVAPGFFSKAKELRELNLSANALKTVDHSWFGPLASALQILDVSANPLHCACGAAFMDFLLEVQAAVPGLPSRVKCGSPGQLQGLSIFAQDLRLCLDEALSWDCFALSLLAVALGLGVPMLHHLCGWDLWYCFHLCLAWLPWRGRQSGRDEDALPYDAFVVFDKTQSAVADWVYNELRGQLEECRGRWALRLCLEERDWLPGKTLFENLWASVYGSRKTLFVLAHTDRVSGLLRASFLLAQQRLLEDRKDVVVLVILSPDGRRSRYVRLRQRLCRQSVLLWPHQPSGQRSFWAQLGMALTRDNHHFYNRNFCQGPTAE", "test": "Inhibition of fetal DNA induced I-kappa-B degradation in Namalwa cells by TLR9 inhibitors", "type": "cell-based", "details": "Namalwa cells pre-treated at 75 μM, then fetal DNA 3.0 μg/ml", "experimental": "Inhibition of Toll-like Receptor 9 was carried out using the Toll-like Receptor 9 antagonist cholorquine and a synthetic inhibitory oligodinucleotide (TTAGGG) which was obtained from InvivoGen. […] The recommended concentration from package inserts was to use a 10-100 microM concentration. […] The same fetal DNA (3.0 μg/ml) was then used to stimulate cells over time in minutes as described above.\nNamalwa cells (2.0×10^7 cells/ml) were also incubated with synthetic inhibitory TLR-9 oligonucleotide (ODN+) at an 8:1 ratio of oligodinucleotide (ODN) to ligand. The package insert recommended a 1-10:1 ratio of inhibitory oligodinucleotide (ODN) to stimulatory oligodinucleotide (ODN). […] This was followed by stimulation with the same purchased fetal DNA at 3.0 μg/ml using the method described hereinbefore.\nIn FIGS. 5A and 6A Namalwa cells (2.0×10^7 cells/ml) were incubated with the inhibitory TLR-9 oligonucleotide (ODN+) in an 8:1 ratio of ODN to ligand. This was followed by stimulation with fetal DNA at a concentration of 3.0 μg/ml.\nIn FIGS. 5B and 6B, the TLR9 antagonist cholorquine was used to pre-treat Namalwa cells at 2.0×10^7 cells/ml at a concentration of 75 μM. Fetal DNA (3.0 microg/ml) was then used to stimulate cells over time in minutes.", "note": "Entries after “also recorded” stand apart in the source; their conditions may differ."}
{"smiles": "CCN(CC)CCCC(C)Nc1ccnc2cc(Cl)ccc12", "note": "(centres unmarked) [chloroquine, N′-(7-chloroquinolin-4-yl)-N,N-diethyl-pentane-1,4-diamine]", "values": [{"measurement": "inhibition of fetal DNA induced I-kappa-B degradation", "value": "can also inhibit this response; also recorded: Induction of I-kappa-B degradation was inhibited; also recorded: blocked the effect of fetal DNA on I-kappaB degradation"}, {"measurement": "inhibition of fetal DNA induced I-kappa-B degradation", "setting": "listed as Chloroquine", "value": "blocked I-kappa-B degradation; also recorded: blocked 1-kappa-B degradation"}]}
